{
  "source": "patent US8247211B2",
  "about": "“Glycopeptide antibiotics” (American Cyanamid Company, priority 2001, dated 2012)",
  "assay_in_all_cases": "In vitro antibacterial evaluation: minimum inhibitory concentration (MIC), broth dilution method",
  "assay_type_in_all_cases": "cell-based",
  "key": {"Escherichia coli": {"tested_on": "Escherichia coli", "method_in_brief": "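Values are minimum inhibitory concentrations, meaning the smallest antibiotic concentration that stops growth of the organism. They come from broth dilution in Muller-Hinton II […] per NCCLS guidance (M7-A2), using 5×10^5 CFU/mL and concentrations from 64 to 0.06 μg/mL.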"}, "Staphylococcus sp.": {"tested_on": "Staphylococcus sp.", "conditions": "broth dilution, 18 hours at 35° C.", "method_in_brief": "(§1)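 NCCLS M7-A2 broth dilution; Muller-Hinton II […]; 5×10^5 CFU/mL; 64-0.06 μg/mL. MIC = lowest concentration with no growth.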"}, "Streptococcus sp.": {"tested_on": "Streptococcus sp.", "method_in_brief": "as §1"}, "Enterococcus sp.": {"tested_on": "Enterococcus sp.", "method_in_brief": "as §1"}},
  "data": [
    {"substance": "Di-N-(4-tert-butylbenzyl)-cyclo[glycyl-β-methylphenylalanyl-O-(4-O-hexopyranosylhexopyranosyl)tyrosyl-3-(2-iminoimidazolidin-4-yl)seryl-3-(3-hexopyranosyl-2-iminoimidazolidin-4-yl)serylseryl] [Example 60a]", "values": [
      {"measurement": "MIC Escherichia coli (ATCC 25922)", "setting": "Escherichia coli; strain ATCC 25922", "value": ">128", "unit": "µg/mL"},
      {"measurement": "MIC Escherichia coli (GC 4559)", "setting": "Escherichia coli; strain GC 4559", "value": ">128", "unit": "µg/mL"},
      {"measurement": "MIC Escherichia coli (GC 4560)", "setting": "Escherichia coli; strain GC 4560", "value": 16, "unit": "µg/mL"},
      {"measurement": "MIC Coagulase Negative Staphylococcus (GC 4547)", "setting": "Staphylococcus sp.", "value": ">128", "unit": "µg/mL"},
      {"measurement": "MIC Coagulase Negative Staphylococcus (GC 4548)", "setting": "Staphylococcus sp.", "value": ">128", "unit": "µg/mL"},
      {"measurement": "MIC Coagulase Negative Staphylococcus (GC 4549)", "setting": "Staphylococcus sp.", "value": ">128", "unit": "µg/mL"},
      {"measurement": "MIC Coagulase Negative Staphylococcus (GC 4551)", "setting": "Staphylococcus sp.", "value": ">128", "unit": "µg/mL"},
      {"measurement": "MIC Coagulase Negative Staphylococcus (GC 6257)", "setting": "Staphylococcus sp.", "value": ">128", "unit": "µg/mL"},
      {"measurement": "MIC Staphylococcus aureus (ATCC 29213)", "setting": "Staphylococcus sp.", "value": ">128", "unit": "µg/mL"},
      {"measurement": "MIC Staphylococcus aureus (GC 1131)", "setting": "Staphylococcus sp.", "value": ">128", "unit": "µg/mL"},
      {"measurement": "MIC Staphylococcus aureus (GC 3051)", "setting": "Staphylococcus sp.", "value": ">128", "unit": "µg/mL"},
      {"measurement": "MIC Staphylococcus aureus (GC 3053)", "setting": "Staphylococcus sp.", "value": ">128", "unit": "µg/mL"},
      {"measurement": "MIC Staphylococcus aureus (GC 4541)", "setting": "Staphylococcus sp.", "value": ">128", "unit": "µg/mL"},
      {"measurement": "MIC Staphylococcus aureus (GC 4542)", "setting": "Staphylococcus sp.", "value": ">128", "unit": "µg/mL"},
      {"measurement": "MIC Staphylococcus aureus (GC 4544)", "setting": "Staphylococcus sp.", "value": ">128", "unit": "µg/mL"},
      {"measurement": "MIC Staphylococcus aureus (GC 4545)", "setting": "Staphylococcus sp.", "value": ">128", "unit": "µg/mL"},
      {"measurement": "MIC Staphylococcus aureus SMITH (GC 4543)", "setting": "Staphylococcus sp.", "value": ">128", "unit": "µg/mL"},
      {"measurement": "MIC Staphylococcus haemolyticus (GC 4546)", "setting": "Staphylococcus sp.", "value": ">128", "unit": "µg/mL"},
      {"measurement": "MIC Staphylococcus aureus (ATCC 29213)", "setting": "Staphylococcus sp.; strain ATCC 29213", "value": ">128", "unit": "µg/mL"},
      {"measurement": "MIC Staphylococcus aureus (GC 1131)", "setting": "Staphylococcus sp.; strain GC 1131", "value": ">128", "unit": "µg/mL"},
      {"measurement": "MIC Staphylococcus aureus (GC 3051)", "setting": "Staphylococcus sp.; strain GC 3051", "value": ">128", "unit": "µg/mL"},
      {"measurement": "MIC Staphylococcus aureus (GC 3053)", "setting": "Staphylococcus sp.; strain GC 3053", "value": ">128", "unit": "µg/mL"},
      {"measurement": "MIC Staphylococcus aureus (GC 4541)", "setting": "Staphylococcus sp.; strain GC 4541", "value": ">128", "unit": "µg/mL"},
      {"measurement": "MIC Staphylococcus aureus (GC 4542)", "setting": "Staphylococcus sp.; strain GC 4542", "value": ">128", "unit": "µg/mL"},
      {"measurement": "MIC Staphylococcus aureus (GC 4544)", "setting": "Staphylococcus sp.; strain GC 4544", "value": ">128", "unit": "µg/mL"},
      {"measurement": "MIC Staphylococcus aureus (GC 4545)", "setting": "Staphylococcus sp.; strain GC 4545", "value": ">128", "unit": "µg/mL"},
      {"measurement": "MIC Staphylococcus haemolyticus (GC 4546)", "setting": "Staphylococcus sp.; strain GC 4546", "value": ">128", "unit": "µg/mL"},
      {"measurement": "MIC Coagulase Negative Staphylococcus (GC 4547)", "setting": "Staphylococcus sp.; strain GC 4547", "value": ">128", "unit": "µg/mL"},
      {"measurement": "MIC Coagulase Negative Staphylococcus (GC 4548)", "setting": "Staphylococcus sp.; strain GC 4548", "value": ">128", "unit": "µg/mL"},
      {"measurement": "MIC Coagulase Negative Staphylococcus (GC 4549)", "setting": "Staphylococcus sp.; strain GC 4549", "value": ">128", "unit": "µg/mL"},
      {"measurement": "MIC Coagulase Negative Staphylococcus (GC 4551)", "setting": "Staphylococcus sp.; strain GC 4551", "value": ">128", "unit": "µg/mL"},
      {"measurement": "MIC Coagulase Negative Staphylococcus (GC 6257)", "setting": "Staphylococcus sp.; strain GC 6257", "value": ">128", "unit": "µg/mL"},
      {"measurement": "MIC Staphylococcus aureus-SMITH (GC 4543)", "setting": "Staphylococcus sp.; strain SMITH GC 4543", "value": ">128", "unit": "µg/mL"},
      {"measurement": "MIC Streptococcus agalactiae (GC 4564)", "setting": "Streptococcus sp.; Streptococcus agalactiae (GC 4564), broth dilution, 18 hours at 35° C.", "value": ">128", "unit": "µg/mL"},
      {"measurement": "MIC Streptococcus pneumoniae (ATCC 6301)", "setting": "Streptococcus sp.; Streptococcus pneumoniae (ATCC 6301), broth dilution, 18 hours at 35° C.", "value": ">128", "unit": "µg/mL"},
      {"measurement": "MIC Streptococcus pneumoniae (GC 1894)", "setting": "Streptococcus sp.; Streptococcus pneumoniae (GC 1894), broth dilution, 18 hours at 35° C.", "value": 64, "unit": "µg/mL"},
      {"measurement": "MIC Streptococcus pneumoniae (GC 4565)", "setting": "Streptococcus sp.; Streptococcus pneumoniae (GC 4565), broth dilution, 18 hours at 35° C.", "value": 128, "unit": "µg/mL"},
      {"measurement": "MIC Streptococcus pyogenes (GC 4563)", "setting": "Streptococcus sp.; Streptococcus pyogenes (GC 4563), broth dilution, 18 hours at 35° C.", "value": ">128", "unit": "µg/mL"},
      {"measurement": "MIC Streptococcus pneumoniae (ATCC 6301)", "setting": "Streptococcus sp.; strain ATCC 6301", "value": ">128", "unit": "µg/mL"},
      {"measurement": "MIC Streptococcus pneumoniae (GC 1894)", "setting": "Streptococcus sp.; strain GC 1894", "value": 64, "unit": "µg/mL"},
      {"measurement": "MIC Streptococcus pyogenes (GC 4563)", "setting": "Streptococcus sp.; strain GC 4563", "value": ">128", "unit": "µg/mL"},
      {"measurement": "MIC Streptococcus agalactiae (GC 4564)", "setting": "Streptococcus sp.; strain GC 4564", "value": ">128", "unit": "µg/mL"},
      {"measurement": "MIC Streptococcus pneumoniae (GC 4565)", "setting": "Streptococcus sp.; strain GC 4565", "value": 128, "unit": "µg/mL"},
      {"measurement": "MIC Enterococcus avium (GC 4558)", "setting": "Enterococcus sp.; Enterococcus avium (GC 4558), broth dilution, 18 hours at 35° C.", "value": 128, "unit": "µg/mL"},
      {"measurement": "MIC Enterococcus faecalis (ATCC 29212)", "setting": "Enterococcus sp.; Enterococcus faecalis (ATCC 29212), broth dilution, 18 hours at 35° C.", "value": ">128", "unit": "µg/mL"},
      {"measurement": "MIC Enterococcus faecalis (GC 2242)", "setting": "Enterococcus sp.; Enterococcus faecalis (GC 2242), broth dilution, 18 hours at 35° C.", "value": ">128", "unit": "µg/mL"},
      {"measurement": "MIC Enterococcus faecalis (GC 2691)", "setting": "Enterococcus sp.; Enterococcus faecalis (GC 2691), broth dilution, 18 hours at 35° C.", "value": ">128", "unit": "µg/mL"},
      {"measurement": "MIC Enterococcus faecalis (GC 3059)", "setting": "Enterococcus sp.; Enterococcus faecalis (GC 3059), broth dilution, 18 hours at 35° C.", "value": ">128", "unit": "µg/mL"},
      {"measurement": "MIC Enterococcus faecalis (GC 4552)", "setting": "Enterococcus sp.; Enterococcus faecalis (GC 4552), broth dilution, 18 hours at 35° C.", "value": ">128", "unit": "µg/mL"},
      {"measurement": "MIC Enterococcus faecalis (GC 4553)", "setting": "Enterococcus sp.; Enterococcus faecalis (GC 4553), broth dilution, 18 hours at 35° C.", "value": 128, "unit": "µg/mL"},
      {"measurement": "MIC Enterococcus faecalis (GC 4554)", "setting": "Enterococcus sp.; Enterococcus faecalis (GC 4554), broth dilution, 18 hours at 35° C.", "value": ">128", "unit": "µg/mL"},
      {"measurement": "MIC Enterococcus faecalis (GC 6189)", "setting": "Enterococcus sp.; Enterococcus faecalis (GC 6189), broth dilution, 18 hours at 35° C.", "value": ">128", "unit": "µg/mL"},
      {"measurement": "MIC Enterococcus faecium (GC 2243)", "setting": "Enterococcus sp.; Enterococcus faecium (GC 2243), broth dilution, 18 hours at 35° C.", "value": ">128", "unit": "µg/mL"},
      {"measurement": "MIC Enterococcus faecium (GC 4556)", "setting": "Enterococcus sp.; Enterococcus faecium (GC 4556), broth dilution, 18 hours at 35° C.", "value": ">128", "unit": "µg/mL"},
      {"measurement": "MIC Enterococcus faecium (GC 4557)", "setting": "Enterococcus sp.; Enterococcus faecium (GC 4557), broth dilution, 18 hours at 35° C.", "value": 128, "unit": "µg/mL"},
      {"measurement": "MIC Enterococcus faecalis (ATCC 29212)", "setting": "Enterococcus sp.; strain ATCC 29212", "value": ">128", "unit": "µg/mL"},
      {"measurement": "MIC Enterococcus faecalis (GC 2242)", "setting": "Enterococcus sp.; strain GC 2242", "value": ">128", "unit": "µg/mL"},
      {"measurement": "MIC Enterococcus faecium (GC 2243)", "setting": "Enterococcus sp.; strain GC 2243", "value": ">128", "unit": "µg/mL"},
      {"measurement": "MIC Enterococcus faecalis (GC 2691)", "setting": "Enterococcus sp.; strain GC 2691", "value": ">128", "unit": "µg/mL"},
      {"measurement": "MIC Enterococcus faecalis (GC 3059)", "setting": "Enterococcus sp.; strain GC 3059", "value": ">128", "unit": "µg/mL"},
      {"measurement": "MIC Enterococcus faecalis (GC 4552)", "setting": "Enterococcus sp.; strain GC 4552", "value": ">128", "unit": "µg/mL"},
      {"measurement": "MIC Enterococcus faecalis (GC 4553)", "setting": "Enterococcus sp.; strain GC 4553", "value": 128, "unit": "µg/mL"},
      {"measurement": "MIC Enterococcus faecalis (GC 4554)", "setting": "Enterococcus sp.; strain GC 4554", "value": ">128", "unit": "µg/mL"},
      {"measurement": "MIC Enterococcus faecium (GC 4556)", "setting": "Enterococcus sp.; strain GC 4556", "value": ">128", "unit": "µg/mL"},
      {"measurement": "MIC Enterococcus faecium (GC 4557)", "setting": "Enterococcus sp.; strain GC 4557", "value": 128, "unit": "µg/mL"},
      {"measurement": "MIC Enterococcus avium (GC 4558)", "setting": "Enterococcus sp.; strain GC 4558", "value": 128, "unit": "µg/mL"},
      {"measurement": "MIC Enterococcus faecalis (GC 6189)", "setting": "Enterococcus sp.; strain GC 6189", "value": ">128", "unit": "µg/mL"}
    ]}
  ]
}
